Two molecules from PMC4729137, “Functional analysis of androgen receptor mutations that confer anti-androgen resistance identified in circulating cell-free DNA from prostate cancer patients” (Genome Biology, 2016) can be followed below.

Numbering of substitutions follows the chain as printed. Entries after “also recorded” stand apart in the source; their conditions may differ.

In one experiment the target is T1, H875Y-AR (Homo sapiens, UniProt P10275, H875Y).
T1 sequence (P10275 1-920 H875Y): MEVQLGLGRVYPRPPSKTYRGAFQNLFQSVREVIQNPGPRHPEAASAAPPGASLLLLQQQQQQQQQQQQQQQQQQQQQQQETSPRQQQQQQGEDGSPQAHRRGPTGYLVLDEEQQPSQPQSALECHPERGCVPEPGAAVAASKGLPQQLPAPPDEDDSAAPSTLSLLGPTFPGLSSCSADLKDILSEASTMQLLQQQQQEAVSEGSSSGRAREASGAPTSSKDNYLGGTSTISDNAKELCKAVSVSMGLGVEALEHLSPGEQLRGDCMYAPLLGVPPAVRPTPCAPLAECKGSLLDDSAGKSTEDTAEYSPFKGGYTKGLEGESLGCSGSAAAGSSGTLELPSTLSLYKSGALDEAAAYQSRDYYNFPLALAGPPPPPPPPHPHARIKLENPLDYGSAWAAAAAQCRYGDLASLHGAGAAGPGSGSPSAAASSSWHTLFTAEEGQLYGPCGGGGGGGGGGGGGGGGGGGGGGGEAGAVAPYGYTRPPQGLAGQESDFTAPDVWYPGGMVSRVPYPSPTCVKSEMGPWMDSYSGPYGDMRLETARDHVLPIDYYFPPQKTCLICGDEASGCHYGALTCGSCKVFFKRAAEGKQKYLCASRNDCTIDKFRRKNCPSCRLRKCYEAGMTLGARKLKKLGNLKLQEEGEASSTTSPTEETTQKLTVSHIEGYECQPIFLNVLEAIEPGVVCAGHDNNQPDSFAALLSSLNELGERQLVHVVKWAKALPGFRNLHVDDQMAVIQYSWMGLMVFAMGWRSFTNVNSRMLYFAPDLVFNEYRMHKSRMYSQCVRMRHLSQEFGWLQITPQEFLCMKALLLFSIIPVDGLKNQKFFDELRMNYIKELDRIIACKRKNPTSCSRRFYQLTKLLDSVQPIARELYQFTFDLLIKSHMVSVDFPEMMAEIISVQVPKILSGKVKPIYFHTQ
Type of experiment: cell-based. The following applies: AR mutant H875Y; transfected PC3 cells; 0.1 nM R1881; drug 0 to 50 μM. The text has this:
Full-length human AR (WT-AR) was encoded on a pcDNA3.1 expression plasmid (Life technologies). The LBD point mutations (single and multiple) were generated using the QuikChange II Site-Directed Mutagenesis Kit (Agilent Technologies) as per manufacturer’s instructions using WT-AR as the template. The mutagenic oligonucleotide primers were designed individually with the desired mutation in the middle of the primer with approximately 10 to 15 bases of correct sequence on both sides.
PC3 cells were seeded and transfected as described above. […] A non-stimulated/no R1881 control was used. After 24 h, cells were lysed and AR-dependent luciferase activity was quantified. Each concentration was assayed in quadruplicate n = 4, with a biological replicate of n = 3. Results were averaged and normalized by expressing them as a percentage of WT AR activity.

The next experiment deals with T2, WT-AR (Homo sapiens, UniProt P10275).
T2 sequence (P10275 1-920): T1 sequence (P10275 1-920 H875Y) with Y875H
As to conditions: concentrations up to 500 nM.

Turning to `CC(C)(O)C(=O)Nc1ccc([N+](=O)[O-])c(C(F)(F)F)c1` [Hydroxyflutamide, hydroxyflutamide], the “Agonist response to treatment” value on H875Y-AR was “Yes”.
For the molecule `C[C@]12CCC(=O)C=C1CC[C@@H]1[C@@H]2[C@@H](O)C[C@@]2(C)[C@H]1CC[C@]2(O)C(=O)CO` [hydrocortisone], the “Transcriptional activation of wild-type AR (in words)” value on WT-AR is “not activated; also recorded: did not exhibit any significant transcriptional activation”.
